Measurements reported in patent US20120004282A1, “RNA Interference Mediated Inhibition of the Intercellular Adhesion Molecule 1 (ICAM-1) Gene Expression Using Short Interfering Nucleic Acid (siNA)” (Merck Sharp & Dohme Corp,, priority 2009, published 2012).
[invAb] = inverted abasic unit; m = 2'-O-methyl; r = 2'-OH (RNA); f = 2'-fluoro

System: ICAM-1 mRNA
Experiment: ICAM-1 mRNA knock-down in transfected Calu-1 cells (Taqman RT-PCR)
Assay type: cell-based, human
Conditions: Calu-1 cells, 10 nM siNA, 24 hrs post-transfection, mean ± S.D., relative to non-targeting control
Experimental: Calu-1 (human; ATCC cat# HTB-54): Cells were cultured at 37° C. in the presence of 5% CO2 and grown in McCoy's 5a medium supplemented with fetal bovine serum at a final concentration of 10% and 100 μg/mL of streptomycin and 100 U/mL penicillin.
All transfections were performed using RNAiMax (Invitrogen Cat# 13778-150) as per the manufacturer's instructions.
Calu-1 cells were plated in all wells of a tissue-culture treated, 96-well plate at final counts of 5,000 cells/well in 100 μL of appropriate culture media. Cells were cultured for 24 hours after plating at 37° C. in the presence of 5% CO2.
After 24 hours, complexes containing siNA and RNAiMax were created as follows. A solution of RNAiMax diluted 33-fold in OPTI-MEM was prepared. In parallel, solutions of the siNAs for testing were prepared to a final concentration of 120 nM in OPTI-MEM. After incubation of RNAiMax/OPTI-MEM solution at room temperature for 5 min, an equal volume of the siNA solution and the RNAiMax solution were added together for each of the siNAs. […] This solution was incubated at room temperature for 20 minutes. After incubation, 20 uL of the solution was added to each of the relevant wells. The final concentration of siNA in each well was 10 nM and the final volume of RNAiMax in each well was 0.3 uL.
The time of incubation with the RNAiMax-siNA complexes was 24 hours, unless otherwise indicated. There was no change in media between the transfection and harvesting of the cells unless otherwise indicated.
Dose response curves were carried out in a similar fashion in 96-well plates, while maintaining a constant amount of RNAiMax in each transfection.
RNA was extracted from a 96-well plate using the TaqMan® Gene Expression Cells-to-CT™ Kit (Cat# 4399002) with a modified protocol. Briefly, a 60 uL (1 plate) or 110 uL (2 plates) of the Lysis Solution with DNase I was dispensed into each well of the Lysis Buffer Plate (twin.tec full skirt plate). The lysis buffer and stop plates were stored at 4° C. until the cells were washed.
The plate was spun at 1100 rpm for 5 minutes. The culture medium was aspirated and discarded from the wells of the culture plate. The lysis was performed automatically using a BioMek FX instrument and method. After the Biomek method was completed, the lysis plate was incubated for 2 min. at room temperature. The lysis plate can be stored for 2 hours at 4° C., or at −20° C. or −80° C. for two months.
Each well of the reverse transcription plate required 10 uL of 2× reverse transcriptase Buffer, 1 uL of 20× reverse transcription enzyme and 2 uL of nuclease-free water. The reverse transcription master mix was prepared by mixing 2× reverse transcription buffer, 20× reverse transcription enzyme mix, and nuclease-free water. 13 uL of the reverse transcription master mix was dispensed into each well of the reverse transcription plate (semi-skirted). A separate reverse transcription plate was prepared for each cell plate. The plate was loaded onto a Biomek NX or Biomek FX Dual-96 and the Biomek method was run. The program is programmed to automatically added 7 uL of lysate from the cell lysis procedure described above into each well of the reverse transcription plate. The plate is sealed and spun on a centrifuge (1000 rpm for 30 seconds) to settle the contents to the bottom of the reverse transcription plate. The plate is placed in a thermocycler at 37° C. for 60 min, 95° C. for 5 min, and 4° C. until the plate is removed from the thermocycler. Upon removal, if not used immediately, the plate was frozen at −20° C.
A series of probes and primers were used to detect the various mRNA transcripts of the genes of ICAM-1 and ICAM-2 in human cell lines (see Table 2). All the Taqman probes and primers for the experiments here-in described were supplied as pre-validated sets by Applied Biosystems, Inc., (see Table 2). The assays were performed on an ABI 7900 instrument, according to the manufacturer's instructions. […]

## 48704-DC: siNA duplex, ICAM-1 target site 395 (m); sense B cGuGuAuucGuuuccGGAG TTB; antisense CUCcGGAAAcGAAuAcAcGUU (sense CGUGUAUUCGUUUCCGGAGTT; antisense CUCCGGAAACGAAUACACGUU; sense: DNA at AGT, 2'-fluoro at CU, [invAb] at 5' end, 3' end, backbone not given here; antisense: sugars from the 5' end rrrfmmmmmfmmmfmfmfmmm, backbone not given here)
  % KD Human: 33 ± 22%

## 48705-DC: siNA duplex, ICAM-1 target site 987 (m); sense B AGGAccuuAAcAGucuAcA TTB; antisense UGUAGAcuGuuAAGGuccuUU (sense AGGACCUUAACAGUCUACATT; antisense UGUAGACUGUUAAGGUCCUUU; sense: DNA at AGT, 2'-fluoro at CU, [invAb] at 5' end, 3' end, backbone not given here; antisense: sugars from the 5' end rrrmmmffmffmmmmffffmm, backbone not given here)
  % KD Human: 5 ± 51%

## 48706-DC: siNA duplex, ICAM-1 target site 250 (m); sense B GcuuGGAGAcucAGuGGcu TTB; antisense AGCcAcuGAGucuccAAGcUU (sense GCUUGGAGACUCAGUGGCUTT; antisense AGCCACUGAGUCUCCAAGCUU; sense: DNA at AGT, 2'-fluoro at CU, [invAb] at 5' end, 3' end, backbone not given here; antisense: sugars from the 5' end rrrfmffmmmfffffmmmfmm, backbone not given here)
  % KD Human: 23 ± 31%

## 48707-DC: siNA duplex, ICAM-1 target site 258 (m); sense B AcucAGuGGcuGAAAGAuG TTB; antisense CAUcuuucAGccAcuGAGuUU (sense ACUCAGUGGCUGAAAGAUGTT; antisense CAUCUUUCAGCCACUGAGUUU; sense: DNA at AGT, 2'-fluoro at CU, [invAb] at 5' end, 3' end, backbone not given here; antisense: sugars from the 5' end rrrfffffmmffmffmmmfmm, backbone not given here)
  % KD Human: 46 ± 17%

## 48708-DC: siNA duplex, ICAM-1 target site 1762 (m); sense B AcAGcAuuuAcccucAGcc TTB; antisense GGCuGAGGGuAAAuGcuGuUU (sense ACAGCAUUUACCCUCAGCCTT; antisense GGCUGAGGGUAAAUGCUGUUU; sense: DNA at AGT, 2'-fluoro at CU, [invAb] at 5' end, 3' end, backbone not given here; antisense: sugars from the 5' end rrrfmmmmmfmmmfmffmfmm, backbone not given here)
  % KD Human: 22 ± 9%

## 48709-DC: siNA duplex, ICAM-1 target site 988 (m); sense B GGAccuuAAcAGucuAcAA TTB; antisense UUGuAGAcuGuuAAGGuccUU (sense GGACCUUAACAGUCUACAATT; antisense UUGUAGACUGUUAAGGUCCUU; sense: DNA at AGT, 2'-fluoro at CU, [invAb] at 5' end, 3' end, backbone not given here; antisense: sugars from the 5' end rrrfmmmffmffmmmmfffmm, backbone not given here)
  % KD Human: 32 ± 14%

## 48710-DC: siNA duplex, ICAM-1 target site 1574 (m); sense B ccucGuGAuGGcAGccucu TTB; antisense AGAGGcuGccAucAcGAGGUU (sense CCUCGUGAUGGCAGCCUCUTT; antisense AGAGGCUGCCAUCACGAGGUU; sense: DNA at AGT, 2'-fluoro at CU, [invAb] at 5' end, 3' end, backbone not given here; antisense: sugars from the 5' end rrrmmffmffmffmfmmmmmm, backbone not given here)
  % KD Human: 25 ± 5%

## 48711-DC: siNA duplex, ICAM-1 target site 1577 (m); sense B cGuGAuGGcAGccucuuAu TTB; antisense AUAAGAGGcuGccAucAcGUU (sense CGUGAUGGCAGCCUCUUAUTT; antisense AUAAGAGGCUGCCAUCACGUU; sense: DNA at AGT, 2'-fluoro at CU, [invAb] at 5' end, 3' end, backbone not given here; antisense: sugars from the 5' end rrrmmmmmffmffmffmfmmm, backbone not given here)
  % KD Human: 42 ± 13%

## 48712-DC: siNA duplex, ICAM-1 target site 1579 (m); sense B uGAuGGcAGccucuuAuGu TTB; antisense ACAuAAGAGGcuGccAucAUU (sense UGAUGGCAGCCUCUUAUGUTT; antisense ACAUAAGAGGCUGCCAUCAUU; sense: DNA at AGT, 2'-fluoro at CU, [invAb] at 5' end, 3' end, backbone not given here; antisense: sugars from the 5' end rrrfmmmmmmffmffmffmmm, backbone not given here)
  % KD Human: 34 ± 27%

## 48713-DC: siNA duplex, ICAM-1 target site 709 (m); sense B GGAcuuucGAucuuccAGc TTB; antisense GCUGGAAGAucGAAAGuccUU (sense GGACUUUCGAUCUUCCAGCTT; antisense GCUGGAAGAUCGAAAGUCCUU; sense: DNA at AGT, 2'-fluoro at CU, [invAb] at 5' end, 3' end, backbone not given here; antisense: sugars from the 5' end rrrmmmmmmffmmmmmfffmm, backbone not given here)
  % KD Human: 36 ± 17%

## 48714-DC: siNA duplex, ICAM-1 target site 1089 (m); sense B GGGucGAAGGuGGuucuuc TTB; antisense GAAGAAccAccuucGAcccUU (sense GGGUCGAAGGUGGUUCUUCTT; antisense GAAGAACCACCUUCGACCCUU; sense: DNA at AGT, 2'-fluoro at CU, [invAb] at 5' end, 3' end, backbone not given here; antisense: sugars from the 5' end rrrmmmffmfffffmmfffmm, backbone not given here)
  % KD Human: 48 ± 22%

## 48715-DC: siNA duplex, ICAM-1 target site 1828 (m); sense B AcuuGuAGccucAGAGcuA TTB; antisense UAGcucuGAGGcuAcAAGuUU (sense ACUUGUAGCCUCAGAGCUATT; antisense UAGCUCUGAGGCUACAAGUUU; sense: DNA at AGT, 2'-fluoro at CU, [invAb] at 5' end, 3' end, backbone not given here; antisense: sugars from the 5' end rrrffffmmmmffmfmmmfmm, backbone not given here)
  % KD Human: 14 ± 12%

## 48716-DC: siNA duplex, ICAM-1 target site 368 (m); sense B GcAGucGuccGcuuccGcu TTB; antisense AGCGGAAGcGGAcGAcuGcUU (sense GCAGUCGUCCGCUUCCGCUTT; antisense AGCGGAAGCGGACGACUGCUU; sense: DNA at AGT, 2'-fluoro at CU, [invAb] at 5' end, 3' end, backbone not given here; antisense: sugars from the 5' end rrrmmmmmfmmmfmmffmfmm, backbone not given here)
  % KD Human: 22 ± 6%
